Experimental findings from publication PMC11968394, “The effect of deuterated PLK1 inhibitor on its safety and efficacy in vivo” (Frontiers in Oncology, 2025) are described below.

The structures appear in SMILES notation. “And” between values parts separate entries of the source, which are not always exact repeats. Equal entries are not always repeated. Where two headings read alike, the source gives them in different places.

For one data set, the system named is MIA PaCa-2. The experiment in a line: Cell viability (CellTiter-Glo, 72 h), MIA PaCa-2. The format is cell-based, Human. The following applies: MIA PaCa-2, 72 hours; for IC50: Homo sapiens; for Bottom: dose-response curve bottom; for Top: dose-response curve top. The method, then:
(§1) Human pancreatic cancer cell lines (PSN1, PANC-1, Panc 04.03, MIA PaCa-2, BxPC-3, and Capan-1) were cultured in their respective culture media. PSN1 cell lines were maintained in RPMI 1640 + 10%FBS. MIA PaCa-2 cells were cultured in DMEM+10%FBS+5% horse serum. Panc 04.03 cells were grown in RPMI 1640 + 15%FBS+10μg/mL Insulin. PANC-1 cells were maintained in DMEM+10%FBS. BxPC-3 cells were cultured in RPMI 1640 + 10%FBS. Capan-1 cells were grown in IMDM+20%FBS. All cells were incubated at 37°C in a humidified atmosphere containing 5% CO2.
(§2) For assays, cells in the logarithmic growth phase were harvested, seeded to different concentrations at 2,000-6,000 cells/well in 96-well plates. Following overnight incubation, test compounds were added at various concentrations and incubated for 72 hours. Cell viability was assessed by the ATP concentration using the CellTiter-Glo reagent (Promega, Madison, WI 53711 USA), and luminescence values were recorded by a Multilabel Reader (PerkinElmer, Waltham, MA, USA).
(ATP-based viability assays read luminescence as a measure of living cells.)

The test system of another data set is PANC-1. The experiment in a line: Cell viability (CellTiter-Glo, 72 h), PANC-1. The format is cell-based, Human. The following applies: PANC-1, 72 hours; for IC50: Homo sapiens; for Bottom: dose-response curve bottom; for Top: dose-response curve top. The method, then: as §1, §2
The next data set deals with DYRK2 (Homo sapiens, UniProt Q92630). The data set is described as follows: Kinase assay DYRK2. It counts as biochemical. The method, then: (§3) Serial dilutions in DMSO were prepared. PLK1 was serially diluted 5-fold from 10 μM, yielding concentrations from 10000 nM to 0.00512 nM. Other targets were serially diluted 3-fold from 10 μM, yielding concentrations from 10000 nM to 0.5 nM. We have used two kinase assays: HTRF assay and ADG-Glo assay.
(§4) For HTRF Assay, 2× ATP/substrate solution and 2× kinase solution were prepared in kinase reaction buffer. Using an Echo 655, 50 nL of each diluted compound was transferred to a 384-well detection plate. The plate was centrifuged at 1000 rpm for 1 minute. 2.5 μL of 2× kinase solution was added to each well. The plate was incubated at 25°C for 10 minutes. 2.5 μL of 2× ATP/substrate solution was added to each well. The plate was centrifuged at 1000 rpm for 1 minute. The plate was incubated at 25°C for 40 minutes. 2× XL665 and antibody detection reagent were prepared in detection buffer. 5 μL of the prepared kinase detection reagent was added to each well. The plate was centrifuged at 1000 rpm for 1 minute. The plate was incubated at 25°C for 1 hour. Fluorescence signals at 620 nm (Cryptate) and 665 nm (XL665) were measured using a multifunction plate reader.
(§5) For ADP-Glo Assay, 2× ATP/substrate solution and 2× kinase solution were prepared in kinase reaction buffer. […] Luminescence signals were measured using a multifunction plate reader.

Another data set addresses CLK1 (Homo sapiens, UniProt P49759). The data set is described as follows: Kinase assay CLK1. It counts as biochemical. The method, then:
as §3, §4, §5

Data set [1] can be described thus: Caco-2 permeability assay. The format is in vitro ADME. The following applies: for Permeability classification: Caco-2, by comparing Propranolol, Digoxin, Prazosin; for recovery at 2 h, 5 μM / Papp A→B at 2 h, 5 μM / Papp B→A at 2 h, 5 μM: human; for Papp A→B at 2 h, 5 μM / Papp B→A at 2 h, 5 μM: Caco-2, 5 μM. The method, then: Caco-2 cells were cultured in 10% FBS DMEM for 14-21 days before assays. […] HBSS was added to the opposite chamber. After 2 hours incubation at 37°C, samples were analyzed by LC-MS/MS. Fluorescein leakage was tested by adding 100 μM fluorescein to the upper chamber and measuring fluorescence after 30 minutes.
Background: Caco-2 monolayers are a common model of the intestinal barrier.

For data set [2], the system named is p-TCTP, a direct substrate of PLK1. The data set is described as follows: Pharmacodynamics: phospho-Ser46 TCTP in PSN-1 xenograft tumors (Western blot). It counts as in vivo, M-NSG mice. The following applies: 2 hours after single oral dose (60, 30, 15 mg/kg). The protocol: For in vivo PK/PD studies, a PSN1 tumor model was established in female M-NSG (NOD.Cg-Prkdc^scidIl2rg^em1Smoc ) mice, which are severely immunodeficient mice lacking the interleukin 2 receptor gamma chain on a NOD.Cg-Prkdc^scid background, at Shanghai Model Organisms (Shanghai, China). Briefly, 5 × 10^6 PSN1 cells were inoculated subcutaneously into each M-NSG mouse. Once the tumors reached approximately 500 mm³, compounds were administered orally at various dosages. For PK studies, blood samples were collected at 0, 0.25, 0.5, 1, 2, 6, and 24 hours post-dose. The sera from blood were then obtained and stored at -70°C. For PD studies, tumors were harvested 2 hours after dosing and stored at -70°C.The serum and tumor samples were then transported to PRECEDO (Hefei, Anhui, China) for further PK/PD studies.
For PD study, tumor tissues (~30 mg) were homogenized in 350 µL Lysis Buffer. After centrifugation, protein concentration in supernatants was determined by BCA assay. Samples were prepared for SDS-PAGE and run on 10% gels. Proteins were transferred to PVDF membranes, blocked, and incubated with anti-Phospho-TCTP (Ser46) Antibody (Cell Signaling Technology, Danvers, MA, USA) (1:1,000) overnight at 4°C. After washing, membranes were incubated with HRP-anti-Rabbit IgG (Cell Signaling Technology, Danvers, MA, USA) (1:3,000) for 1 hour, then treated with ECL reagents for imaging.
For orientation: In western blotting, separated proteins are transferred to a membrane and probed.

Another data set relates to BxPC-3 CDX model. The data set is described as follows: BxPC-3 CDX model. The format is in vivo, NOD SCID mouse. The following applies: for Mice died: NOD SCID, 60 mg/kg, 6 mice/group, 10 days. The protocol:
These studies were performed at Yikon Medical (Beijing, China). Cancer cell line HCT 116 or BxPC-3 were cultured in 10% FBS RPMI-1640 medium plus penicillin, streptomycin, and glutamine at 37°C and 5% CO2 until reaching confluency. Cells were then prepared for inoculation. 5×10⁷ cells/mL cells in 100 µL were inoculated subcutaneously into the right flank of each female BALB/c nude mouse for HCT 116 cell line or female NOD SCID mouse for BxPC-3 cell line. When tumors reached 100-150 mm³, mice were divided into 4-5 groups (6-7 mice/group). […] Mice were dosed at least 10 days and were monitored for 30 days.
TGI was calculated as follows.

Setting [3] is: Caco-2, Caco-2, A-B, read-out: Recovery A-B%.
Setting [4] is: Caco-2, Caco-2, B-A, read-out: Recovery B-A%.

DYRK2, sequence (Q92630 whole entry): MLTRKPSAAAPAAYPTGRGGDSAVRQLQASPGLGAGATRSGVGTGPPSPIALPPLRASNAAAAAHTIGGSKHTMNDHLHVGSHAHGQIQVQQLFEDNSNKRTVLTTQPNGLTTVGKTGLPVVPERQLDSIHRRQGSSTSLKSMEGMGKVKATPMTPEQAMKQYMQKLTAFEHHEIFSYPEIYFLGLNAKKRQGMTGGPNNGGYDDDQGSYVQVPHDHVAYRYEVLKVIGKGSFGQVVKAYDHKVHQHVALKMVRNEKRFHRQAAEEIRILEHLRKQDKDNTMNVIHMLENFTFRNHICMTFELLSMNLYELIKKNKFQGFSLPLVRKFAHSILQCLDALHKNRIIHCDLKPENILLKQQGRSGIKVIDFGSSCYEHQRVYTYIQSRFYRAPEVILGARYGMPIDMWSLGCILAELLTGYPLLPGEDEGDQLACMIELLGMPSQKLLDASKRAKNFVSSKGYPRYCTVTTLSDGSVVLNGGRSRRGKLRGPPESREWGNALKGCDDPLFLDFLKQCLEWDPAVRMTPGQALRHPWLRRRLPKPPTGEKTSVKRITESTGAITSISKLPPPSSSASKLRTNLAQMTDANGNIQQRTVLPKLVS
CLK1, sequence (P49759 whole entry): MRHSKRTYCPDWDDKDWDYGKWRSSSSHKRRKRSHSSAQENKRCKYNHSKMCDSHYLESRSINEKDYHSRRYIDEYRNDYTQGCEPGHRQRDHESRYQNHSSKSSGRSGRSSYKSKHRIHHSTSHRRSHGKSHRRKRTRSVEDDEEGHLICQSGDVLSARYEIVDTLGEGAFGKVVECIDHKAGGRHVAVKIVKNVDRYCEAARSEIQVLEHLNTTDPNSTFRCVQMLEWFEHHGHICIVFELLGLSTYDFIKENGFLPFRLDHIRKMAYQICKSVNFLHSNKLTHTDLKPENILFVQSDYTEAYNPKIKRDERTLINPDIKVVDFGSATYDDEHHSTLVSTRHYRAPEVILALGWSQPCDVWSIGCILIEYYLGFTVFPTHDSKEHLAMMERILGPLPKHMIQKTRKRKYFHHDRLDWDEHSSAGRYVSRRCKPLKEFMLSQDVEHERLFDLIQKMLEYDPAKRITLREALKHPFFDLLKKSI

As a reminder, the IC50 is the point on the concentration scale where inhibition reaches its midpoint. Low readings indicate greater potency in that assay, high ones weaker potency in that assay. The Papp A→B is how fast a substance crosses the layer from the apical side. A low value points to poor permeation. In general, Papp B→A refers to the apparent permeability from the basolateral to the apical side of a cell layer. On to `CN1CCN(c2ccc(OC(F)(F)F)c(Nc3ncc4c(n3)-c3c(c(C(N)=O)nn3CCO)CC4)c2)CC1` [NMS-P937], for which the IC50 is 196 nM with MIA PaCa-2, 142 nM in the data set on PANC-1, 1150 nM at DYRK2 and 235 nM at CLK1. Further, the Bottom in the data set with MIA PaCa-2 is -4.1; in the data set with PANC-1, -2.5. The Top is 78.7 with MIA PaCa-2 and 41.1 in the data set on PANC-1. The Permeability classification entry in data set [1] is on record as “medium permeability”. The recovery at 2 h, 5 μM was determined as 71.6% in data set [1] (setting [3]) and 93.3% in data set [1] (setting [4]). For the same molecule, the Papp A→B at 2 h, 5 μM in data set [1] was found to be 6.1 ×10⁻⁶ cm/s. Further, the Papp B→A at 2 h, 5 μM in data set [1] was 34.2 ×10⁻⁶ cm/s. Besides, the “p-TCTP signal in tumors” value in data set [2] is recorded as “reduced p-TCTP signal”. In the data set on BxPC-3 CDX model (NOD SCID mice), the Body weight entry is “dramatically reduced body weight”. In addition, the Mice died entry with BxPC-3 CDX model is “two mice died”; in the data set with BxPC-3 CDX model (listed as NMP-P937, 60 mg/kg), 2/6.

On to `[2H]C1([2H])N(C)C([2H])([2H])C([2H])([2H])N(c2ccc(OC(F)(F)F)c(Nc3ncc4c(n3)-c3c(c(C(N)=O)nn3CCO)CC4)c2)C1([2H])[2H]` [PR00012], for which, in the data set with MIA PaCa-2, 262 nM corresponded to half-maximal inhibition (IC50), the Bottom was found to be 8.4 and the Top was 86.8. In the data set on PANC-1, this molecule showed an IC50 of 237 nM, a Bottom of 9.8 and a Top of 53.1. The same molecule had an IC50 on DYRK2 of 81.4 nM. Also, the IC50 against CLK1 worked out at 196 nM. For the same molecule, in data set [1], the Permeability classification result is recorded as “medium permeability”; the Papp A→B at 2 h, 5 μM stood at 5.2 ×10⁻⁶ cm/s; the Papp B→A at 2 h, 5 μM stood at 34.7 ×10⁻⁶ cm/s. In addition, the recovery at 2 h, 5 μM in data set [1] (setting [3]) is 79.7%. Besides, the recovery at 2 h, 5 μM in data set [1] (setting [4]) is 89.7%. Moreover, in data set [2], the “p-TCTP signal in tumors” value is reported as “reduced p-TCTP signal”. The Tumor growth result in the data set with BxPC-3 CDX model (NOD SCID mice) is “tumor growth inhibition in a dose-dependent manner”. The Mice died entry in the data set with BxPC-3 CDX model was “one mouse died and 1/6”.
